Laboratory results reported in patent publication US20220389007A1, “INHIBITORS OF HUMAN IMMUNODEFICIENCY VIRUS REPLICATION” (VIIV HEALTHCARE UK (No. 5) LIMITED, priority 2019, published 2022).

What was measured:
[1] = Compound cytotoxicity, XTT-based colorimetric assay; assay type: cell-based; settings: human; uninfected MT2 cells, day 4, XTT assay
In short: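 Run under the antiviral-assay protocol but without virus. Viability was read on day 4 and CC50 values were derived from the readout.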

recombinant NL4-3 virus = test: HIV cell culture assay (antiviral activity, luciferase readout); assay type: cell-based; settings: Human immunodeficiency virus 1, NL43, MT2, MT-2 cells infected for 4-5 days with recombinant NL4-3 virus carrying Renilla luciferase
In short: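 MT-2 cells infected for 4-5 days with NL4-3 reference virus carrying Renilla luciferase in place of part of nef, in presence of serial compound dilutions. Luciferase read with live-cell substrate; EC50 from median effect equation fit.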

Compound	CC50 at 4 day [1]	EC50 (recombinant NL4-3 virus)
Cn1nc(NS(C)(=O)=O)c2c(Cl)ccc(-n3c([C@H](Cc4cc(F)cc(F)c4)NC(=O)Cn4nc(C(F)F)c5c4C(F)(F)[C@@H]4C[C@H]54)nc4nc(-c5nccc(C(F)F)n5)ccc4c3=O)c21 (atropisomer, axis not shown; (P)) [Example 6, N-((S)-1-((3P)-3-(4-chloro-1-methyl-3-(methylsulfonamido)-1H-indazol-7-yl)-7-(4-(difluoromethyl)pyrimidin-2-yl)-4-oxo-3,4-dihydropyrido[2,3-d]pyrimidin-2-yl)-2-(3,5-difluorophenyl)ethyl)-2-((3bS,4aR)-3-(difluoromethyl)-5,5-difluoro-3b,4,4a,5-tetrahydro-1H-cyclopropa[3,4]cyclopenta[1,2-c]pyrazol-1-yl)acetamide]	> 100 nM	0.023 nM
Cn1nc(NS(C)(=O)=O)c2c(Cl)ccc(-n3c([C@H](Cc4cc(F)cc(F)c4)NC(=O)Cn4nc(C(F)F)c5c4C(F)(F)[C@@H]4C[C@H]54)nc4nc(-c5cc(C(F)(F)F)ccn5)ccc4c3=O)c21 (atropisomer, axis not shown; (P)) [Example 16, N-((S)-1-((3P)-3-(4-chloro-1-methyl-3-(methylsulfonamido)-1H-indazol-7-yl)-4-oxo-7-(4-(trifluoromethyl)pyridin-2-yl)-3,4-dihydropyrido[2,3-d]pyrimidin-2-yl)-2-(3,5-difluorophenyl)ethyl)-2-((3bS,4aR)-3-(difluoromethyl)-5,5-difluoro-3b,4,4a,5-tetrahydro-1H-cyclopropa[3,4]cyclopenta[1,2-c]pyrazol-1-yl)acetamide]	> 100 nM	0.052 nM
Cc1cc(-c2ccc3c(=O)n(-c4ccc(Cl)c5c(NS(C)(=O)=O)nn(C)c45)c([C@H](Cc4cc(F)cc(F)c4)NC(=O)Cn4nc(C(F)F)c5c4C(F)(F)[C@@H]4C[C@H]54)nc3n2)nn1CC(C)(F)F (single isomer, unassigned) [Example 96]	> 100 nM	0.044 nM
Cn1nc(NS(C)(=O)=O)c2c(Cl)ccc(-n3c([C@H](Cc4cc(F)cc(F)c4)NC(=O)Cn4nc(C(F)F)c5c4C(F)(F)[C@@H]4C[C@H]54)nc4nc(-c5ccn(CCCF)n5)ccc4c3=O)c21 (atropisomer, axis not shown; (P)) [Example 87, N-((S)-1-((3P)-3-(4-chloro-1-methyl-3-(methylsulfonamido)-1H-indazol-7-yl)-7-(1-(3-fluoropropyl)-1H-pyrazol-3-yl)-4-oxo-3,4-dihydropyrido[2,3-d]pyrimidin-2-yl)-2-(3,5-difluorophenyl)ethyl)-2-((3bS,4aR)-3-(difluoromethyl)-5,5-difluoro-3b,4,4a,5-tetrahydro-1H-cyclopropa[3,4]cyclopenta[1,2-c]pyrazol-1-yl)acetamide]	> 100 nM	0.036 nM
Cc1cc(-c2ccc3c(=O)n(-c4ccc(Cl)c5c(NS(C)(=O)=O)nn(C)c45)c([C@H](Cc4cc(F)cc(F)c4)NC(=O)Cn4nc(C(F)F)c5c4C(F)(F)[C@@H]4C[C@H]54)nc3n2)n[nH]1 (atropisomer, axis not shown; (P)) [Example 98, N-((S)-1-((3P)-3-(4-chloro-1-methyl-3-(methylsulfonamido)-1H-indazol-7-yl)-7-(5-methyl-1H-pyrazol-3-yl)-4-oxo-3,4-dihydropyrido[2,3-d]pyrimidin-2-yl)-2-(3,5-difluorophenyl)ethyl)-2-((3bS,4aR)-3-(difluoromethyl)-5,5-difluoro-3b,4,4a,5-tetrahydro-1H-cyclopropa[3,4]cyclopenta[1,2-c]pyrazol-1-yl)acetamide]	> 100 nM	0.2 nM
Cn1nc(NS(C)(=O)=O)c2c(Cl)ccc(-n3c([C@H](Cc4cc(F)cc(F)c4)NC(=O)Cn4nc(C(F)F)c5c4C(F)(F)[C@@H]4C[C@H]54)nc4nc(-c5cncnc5)ccc4c3=O)c21 (atropisomer, axis not shown; (P)) [Example 55, N-((S)-1-((3P)-3-(4-chloro-1-methyl-3-(methylsulfonamido)-1H-indazol-7-yl)-4-oxo-7-(pyrimidin-5-yl)-3,4-dihydropyrido[2,3-d]pyrimidin-2-yl)-2-(3,5-difluorophenyl)ethyl)-2-((3bS,4aR)-3-(difluoromethyl)-5,5-difluoro-3b,4,4a,5-tetrahydro-1H-cyclopropa[3,4]cyclopenta[1,2-c]pyrazol-1-yl)acetamide]	> 100 nM	0.09 nM
Cn1nc(NS(C)(=O)=O)c2c(Cl)ccc(-n3c([C@H](Cc4cc(F)cc(F)c4)NC(=O)Cn4nc(C(F)F)c5c4C(F)(F)[C@@H]4C[C@H]54)nc4ncc(-c5cccc(C(F)(F)F)n5)cc4c3=O)c21 (atropisomer, axis not shown; (P)) [Example 1, N-((S)-1-((3P)-3-(4-chloro-1-methyl-3-(methylsulfonamido)-1H-indazol-7-yl)-4-oxo-6-(6-(trifluoromethyl)pyridin-2-yl)-3,4-dihydropyrido[2,3-d]pyrimidin-2-yl)-2-(3,5-difluorophenyl)ethyl)-2-((3bS,4aR)-3-(difluoromethyl)-5,5-difluoro-3b,4,4a,5-tetrahydro-1H-cyclopropa[3,4]cyclopenta[1,2-c]pyrazol-1-yl)acetamide]	> 100 nM	0.055 nM
Cn1nc(NS(C)(=O)=O)c2c(Cl)ccc(-n3c([C@H](Cc4cc(F)cc(F)c4)NC(=O)Cn4nc(C(F)F)c5c4C(F)(F)[C@@H]4C[C@H]54)nc4nc(-c5cccc(F)n5)ccc4c3=O)c21 (atropisomer, axis not shown; (P)) [Example 30, N-((S)-1-((3P)-3-(4-chloro-1-methyl-3-(methylsulfonamido)-1H-indazol-7-yl)-7-(6-fluoropyridin-2-yl)-4-oxo-3,4-dihydropyrido[2,3-d]pyrimidin-2-yl)-2-(3,5-difluorophenyl)ethyl)-2-((3bS,4aR)-3-(difluoromethyl)-5,5-difluoro-3b,4,4a,5-tetrahydro-1H-cyclopropa[3,4]cyclopenta[1,2-c]pyrazol-1-yl)acetamide]	> 100 nM	0.034 nM
Cn1nc(NS(C)(=O)=O)c2c(Cl)ccc(-n3c([C@H](Cc4cc(F)cc(F)c4)NC(=O)Cn4nc(C(F)F)c5c4C(F)(F)[C@@H]4C[C@H]54)nc4nc(-c5ccn(CCCC(F)(F)F)n5)ccc4c3=O)c21 (atropisomer, axis not shown; (P)) [Example 85, N-((S)-1-((3P)-3-(4-chloro-1-methyl-3-(methylsulfonamido)-1H-indazol-7-yl)-4-oxo-7-(1-(4,4,4-trifluorobutyl)-1H-pyrazol-3-yl)-3,4-dihydropyrido[2,3-d]pyrimidin-2-yl)-2-(3,5-difluorophenyl)ethyl)-2-((3bS,4aR)-3-(difluoromethyl)-5,5-difluoro-3b,4,4a,5-tetrahydro-1H-cyclopropa[3,4]cyclopenta[1,2-c]pyrazol-1-yl)acetamide]	> 100 nM	0.096 nM
